In patent US6288082A, “Substituted 3-cyanoquinolines” (priority 1999, dated 2001):
“And” between values parts separate entries of the source, which are not always exact repeats. Equal values may be shown once. Where a name gives a salt, the structure may show the parent alone.

Target: Mitogen Activated Protein Kinase (Mek-Erk)
Assay: Mitogen Activated Protein Kinase (MAPK) assay, coupled Mek-Erk
Assay type: biochemical, human
Conditions: MBP or Myc peptide substrate, pH 7.4
Method: Mitogen Activated Protein Kinase (MAPK) Assay
To evaluate inhibitors of the MAP (mitogen activated protein) kinase a two component coupled standard pharmacological test procedure, which measures phosphorylation of a serine/threonine residue in an appropriate sequence in the substrate in the presence and absence of a putative inhibitor, was used. Recombinant human MEK 1 (MAPKK) was first used to activate recombinant human ERK2 (MAPK) and the activated MAPK (ERK) was incubated with substrate (MBP peptide or MYC peptide) in the presence of ATP, Mg^+2 and radiolabeled ^33 P ATP. The phosphorylated peptide was captured on a P 81 phosphocellulose filter (paper filter or embedded in microtiter plate) washed and counted by scintillation methods.
The peptide substrates used in the assay are MBP, peptide substrate ([…]), or synthetic Myc substrate, ([…]·5 TFA. The recombinant enzymes used were prepared as GST fusion proteins of human ERK 2 and human MEK 1. Inhibitor samples were prepared as 10×stocks in 10% DMSO and an appropriate aliquot was used to deliver either 10 ug/ml for a single point screening dose or 100, 10, 1, and 0.1 uM final concentration for a dose response curve. Final DMSO concentrations were less than or equal to 1%.
The reaction was run as follows in 50 mM Tris kinase buffer, pH 7.4 in a reaction volume of 50 ul. The appropriate volume of kinase buffer and inhibitor sample was added to the tube. Appropriate dilution of enzyme was delivered to give 2-5 ug recombinant MAPK (Erk ) per tube. The inhibitor was incubated with MAPK (Erk) for 30 min at 0 deg. C. Recombinant Mek (MAPKK) (0.5-2.5 ug) or fully activated Mek (0.05-0.1 units) was added to activate the Erk and incubated for 30 min at 30° C. Then substrate and gamma ^33 P ATP was were added to give a final concentration of 0.5-1 mM MBPP or 250-500 uM Myc; 0.2-0.5 uCi gamma P 33 ATP/tube; 50 μM ATP final concentration. Samples were incubated at 30° C. for 30 minutes and the reaction was stopped by adding 25 μl of ice cold 10% TCA. After samples were chilled on ice for 30 min, 20 μl of sample was transferred onto P 81 phosphocellulose filter paper or appropriate MTP with embedded P 81 filter. Filter papers or MTP were washed 2 times with a large volume of 1% acetic acid, then 2 times with water. The filters or MTP were briefly air dried before addition of scintillant and samples were counted in the appropriate scintillation counter set up for reading ^33 P isotope. Samples included a positive control (activated enzyme plus substrate); a no enzyme control; a no substrate control; samples with different concentrations of putative inhibitor; and samples with reference inhibitors (other active compounds or non-specific inhibitors such as staurosporine or K252 B).
The raw data was captured as cpm. Sample replicates were averaged and corrected for background count. Mean cpm data was tabulated by group and % inhibition by a test compound was calculated as (corrected cpm control-corrected. cpm sample/control)×100=% inhibition. […] The results obtained for representative compounds of this invention are listed in TABLE 2 where there may be separate entries for the same compound; this is an indication that the compound was evaluated more than one time.

Row | SMILES | IC50
1 | CCOc1cc2ncc(C#N)c(Nc3ccc4ncsc4c3)c2cc1OCC [Example 97, 4-(Benzothiazol-6-ylamino)-6,7-diethoxy-quinoline-3-carbonitrile HCl Salt] | 55 µM
2 | COc1cc2ncc(C#N)c(Nc3ccc4cn[nH]c4c3)c2cc1OC [Example 102, 6,7-Dimethoxy-4-(1H-indazol-6-ylamino)-quinoline-3-carbonitrile] | 0.5 µM
3 | CCOc1cc2ncc(C#N)c(Nc3ccc4c(c3)C(=O)NC4=O)c2cc1OCC [Example 104, 4-(1,3-Dioxo-2,3-dihydro-1H-isoindol-5-ylamino)-6,7-diethoxy-quinoline-3-carbonitrile] | 35 µM
4 | CCOc1cc2ncc(C#N)c(Nc3ccc4[nH]c(=O)oc(=O)c4c3)c2cc1OCC [Example 109, 4-(2,4-Dioxo-1,4-dihydro-2H-benzo[d][1,3]oxazin-6-ylamino)-6,7-diethoxy-quinoline-3-carbonitrile] | > 100 µM
5 | CCOc1cc2ncc(C#N)c(Nc3ccc4c(c3)S(=O)(=O)C=C4)c2cc1OCC [Example 112, 4-(1,1-Dioxo-1H-benzo[b]thiophen-6-ylamino)-6,7-diethoxy-quinoline-3-carbonitrile] | > 100 µM
6 | N#Cc1cnc2cc3c(cc2c1Nc1ccc2cn[nH]c2c1)OCCO3 [Example 125, 9-(1H-Indazol-6-ylamino)-2,3-dihydro[1,4]dioxino[2,3-g]quinoline-8-carbonitrile] | 35 µM
7 | CCOc1cc2c(Nc3ccc4cn[nH]c4c3)c(C#N)cnc2cc1OC [Example 126, 6-Ethoxy-4-(1H-indazol-6-ylamino)-7-methoxyquinoline-3-carbonitrile] | > 100 µM
8 | COc1cc2c(Nc3ccc4cn[nH]c4c3)c(C#N)cnc2c(OC)c1OC [Example 128, 4-(1H-Indazol-6-ylamino)-6,7,8-trimethoxy-quinoline-3-carbonitrile] | > 100 µM and 100 µM
9 | COc1cc2ncc(C#N)c(Nc3ccc4c(C)cc(=O)[nH]c4c3)c2cc1OC [Example 129, 6,7-Dimethoxy-4-(4-methyl-2-oxo-1,2-dihydro-quinolin-7-ylamino)-quinoline-3-carbonitrile] | > 100 µM
10 | COc1cc2ncc(C#N)c(Nc3ccc4sc(C)nc4c3)c2cc1OC [Example 130, 6,7-Dimethoxy-4-(2-methyl-benzothiazol-5-ylamino)-quinoline-3-carbonitrile] | > 100 µM
11 | COc1cc2ncc(C#N)c(Nc3ccc4[nH]c(=O)sc4c3)c2cc1OC [Example 131, 6,7-Dimethoxy-4-(2-oxo-2,3-dihydro-benzothiazol-6-ylamino)-quinoline-3-carbonitrile] | > 100 µM
12 | COc1cc2ncc(C#N)c(Nc3cccc4ncccc34)c2cc1OC [Example 132, 6,7-Dimethoxy-4-(quinolin-5-ylamino)-quinoline-3-carbonitrile] | 90 µM
13 | COc1cc2ncc(C#N)c(Nc3cccc4cnccc34)c2cc1OC [Example 133, 4-(Isoquinolin-5-ylamino)-6,7-dimethoxy-quinoline-3-carbonitrile] | 90 µM
14 | COc1cc2ncc(C#N)c(Nc3cccc4cccnc34)c2cc1OC [Example 134, 6,7-Dimethoxy-4-(quinolin-8-ylamino)-quinoline-3-carbonitrile] | > 100 µM
15 | COc1cc2ncc(C#N)c(Nc3ccc(O)c4ncccc34)c2cc1OC [Example 135, 4-(8-Hydroxy-quinolin-5-ylamino)-6,7-dimethoxy-quinoline-3-carbonitrile] | > 100 µM
16 | COc1ccc(OC)c2c(Nc3ccc4cn[nH]c4c3)c(C#N)cnc12 [Example 138, 4-(1H-Indazol-6-ylamino)-5,8-dimethoxy-quinoline-3-carbonitrile] | > 100 µM
17 | COc1cc2ncc(C#N)c(Nc3ccc4cn[nH]c4c3)c2cc1OCCCN1CCOCC1 [Example 139, 4-(1H-Indazol-6-ylamino)-7-methoxy-6-(3-morpholine-4-yl-propoxy)-quinoline-3-carbonitrile hydrochloride] | 15 µM
18 | COc1ccc2ncc(C#N)c(Nc3ccc4cn[nH]c4c3)c2c1 [Example 141, 4-(1H-Indazol 6-ylamino)-6-methoxy-quinoline-3-carbonitrile] | 3 µM
19 | COc1ccc2ncc(C#N)c(Nc3ccc4nn[nH]c4c3)c2c1 [Example 142, 4-(3H-Benzotriazol-5-ylamino)-6-methoxy-quinoline-3-carbonitrile] | 30 µM
20 | COc1ccc2c(Nc3ccc4cn[nH]c4c3)c(C#N)cnc2c1 [Example 143, 4-(1H-Indazol-6-ylamino)-7-methoxy-quinoline-3-carbonitrile] | 6 µM
21 | COc1ccc2c(Nc3ccc4[nH]nnc4c3)c(C#N)cnc2c1 [Example 144, 4-(3H-benzotriazol-5-ylamino)-7-methoxy-quinoline-3-carbinitile] | > 100 µM
22 | COc1ccc2c(Nc3ccc4[nH]ccc4c3)c(C#N)cnc2c1 [Example 146, 4-(1H-Indol-5-ylamino)-7-methoxy-quinoline-3-carbonitrile] | 3 µM
23 | COc1cccc2c(Nc3ccc4cn[nH]c4c3)c(C#N)cnc12 [Example 148, 4-(1H-Indazol-6-ylamino)-8-methoxy-quinoline-3-carbonitrile] | > 100 µM
24 | COc1cccc2c(Nc3ccc4nn[nH]c4c3)c(C#N)cnc12 [Example 149, 4-(3H-benzotriazol-5-ylamino)-8-methoxy-quinoline-3-carbonitrile] | > 100 µM
25 | COc1cc2ncc(C#N)c(Nc3ccc4[nH]c(C)nc4c3)c2cc1OC [Example 152, 6,7-Dimethoxy-4-(2-methyl-1H-benzoimidazol-5-ylamino)-quinoline-3-carbonitrile] | > 100 µM
26 | COc1cc2ncc(C#N)c(Nc3ccc4ncccc4c3)c2cc1OC [Example 153, 6,7-Dimethoxy-4-(quinoline-6-ylamino)-quinoline-3-carbonitrile] | > 100 µM
27 | COc1cc2ncc(C#N)c(Nc3cccc4c3CCCC4)c2cc1OC [Example 155, 6,7-Dimethoxy-4-(5,6,7,8,-tetrahydro-naphthalen-1-ylamino)-quinoline-3-carbonitrile] | 4 µM
28 | COc1cc2c(Nc3ccc4nn[nH]c4c3)c(C#N)cnc2c(OC)c1OC [Example 156, 4-(3H-Benzotriazol-5-ylamino)-6,7,8-Trimethoxy-quinoline-3-carbonitrile] | 35 µM
29 | COc1cc2c(Nc3ccc4cn[nH]c4c3)c(C#N)cnc2cc1OCCN(C)C [Example 167, 7-(2-Dimethylaminoethoxy)-4-(1H-indazol-6-ylamino)-6-methoxyquinoline-3-carbonitrile] | 8 µM

Same assay, conditions: MBP or Myc peptide substrate, pH 7.4; hydrochloride

Row | SMILES | IC50
30 | COc1cc2ncc(C#N)c(Nc3ccc4[nH]nnc4c3)c2cc1OCCCN1CCOCC1 [Example 140, 4-(3H-Benzotriazol-5-ylamino)-7-methoxy-6-(3-morpholin-4-yl-proloxy)-quinoline-3-carbonitrile hydrochloride] | 22 µM and 15 µM
